{"source": "patent US11279708B2", "about": "“Amidino- and amino-rocaglates as novel translation inhibitors and anticancer agents” (priority 2019, dated 2022)", "key": {"[1]": {"molecular_target": "T1, eIF4A1:poly r(AG)8 RNA (Homo sapiens, UniProt P60842)", "T1 construct": "His6 (N); made in house; host or cells: E. coli BL21 (DE3)", "test": "fluorescence polarization (FP) assay, eIF4A1 binding to FAM-labelled RNA", "details": "500 nM eIF4A1, 10 nM FAM-labelled RNA, screen at 10 μM compound", "from_the_text": "Rocaglates similarly enhance RNA binding of eIF4A1 and eIF4A2. In order to rapidly evaluate the ability of rocaglates to stimulate binding of eIF4A to RNA, a fluorescence polarization (FP) assay using a FAM (fluorescein amidite)-labelled RNA probe (FIG. 18A) was used. […] Due to the high degree of shared amino acid identity between the two paralogs, their apparent similarity with respect to RNA binding activity and response to CR-1-31-B (23), and the fact that eIF4A1 is essential but eIF4A2 is not, eIF4A1 was used in the majority of our subsequent experiments.\nFluorescence Polarization (FP) Assays. Unless otherwise specified, eIF4A (500 nM) was incubated with 10 nM FAM-labelled RNA for 30 min in FP buffer (14.4 mM HEPES-NaOH (pH 8), 108 mM NaCl, 1 mM MgCl2, 14.4% glycerol, 0.1% DMSO, 2 mM DTT, 1 mM AMPPNP) at room temperature in black low volume 384 well plates (Corning 3820). FP readings were performed on a Pherastar FS microplate reader (BMG Labtech).\nFIGS. 19A-19C. Rocaglate activity profiling. 19A. Assessing eIF4A1:poly r(AG)8 (SEQ ID NO: 2) RNA binding by FP in the presence of 10 μM rocaglate. Values are expressed relative to vehicle controls and data is rank ordered. n=3±SD. 19B. The change in polarization obtained with eIF4A1:poly r(AG)8 (SEQ ID NO: 2) and eIF4A2:poly r(AG)8 (SEQ ID NO: 2) RNA. Pearson r=0.814; p<0.0001. 19C. Inhibition of cap-dependent translation by rocaglates was measured using the indicated mRNA bicistronic reporter (4 ng/ul) in Krebs-2 extracts at a final compound concentration of 2 μM. n=3±SD.\nFIG. 21. Assessing stimulation of eIF4A1:RNA binding by rocaglates and pateamine. FAM-labelled RNA was incubated in the presence of 500 nM eIF4A1 and the indicated concentrations of compound for 30 min, after which time FP measurements were taken. Limitations in WGD-57-591 availability prevented us from extending the titrations to 100 μM. The change in FP obtained relative to vehicle controls is presented. n=3±SD. FP results of competition assays in which preformed eIF4A1:rocaglate:FAM-poly r(AG)10 complexes were incubated in the presence of poly r(AG)10 (SEQ ID NO: 39) and dissociation measured as a function of time. n=3±SD."}, "[2]": {"tested_on": "HEK 293 cells", "test": "in cellula translation of transfected (AG)10- and (UC)10-FF/HCV/Ren mRNA", "type": "cell-based", "details": "compound added 1 h after mRNA transfection, 6 h exposure", "from_the_text": "We next asked if differences in behavior among rocaglates towards the (AG)10- and (UC)10-reporters observed in vitro also extended in cellula (FIG. 26B). This was important since in cells, mRNA transcripts need to compete for components of the translation initiation machinery from a complex cellular mRNA pool and this scenario is difficult to recapitulate in experiments using cell-free extracts. Following mRNA transfections, cells were exposed to compound and luciferase activity determined.\nRNA Transfections. HEK 293 cells were transfected in a 24 well plate with 0.25 μg/well of in vitro synthesized capped m^7GpppG(AG)10-FF/HCV/Ren or m^7GpppG(UC)10FF/HCV/Ren mRNA and 1 h later were exposed to the indicated concentrations of compounds for an additional 6 h. Following this, extracts were prepared using passive lysis buffer (PLB, Promega) and luciferase activity measured on a Berthold Lumt LB 9507 luminometer.\n(§1) FIGS. 26A-26B. In cellula activity of rocaglates. 26A. Cytotoxicity of rocaglates towards NIH/3T3 (grey circle) and the NIH/3T3 rocaglate-resistant line, eIF4A^em1JP(redtriangle). Cells were exposed to 40 nM compound for 4 days and viability was measured using the SRB assay. n=3±SD. 26B. Rocaglates show different sequence preferences for inhibiting cap-dependent translation in cellula. HEK 293 cells were transfected with 0.5 μg of in vitro synthesized capped (AG)10-FF/HCV/Ren or (UC)10-FF/HCV/Ren mRNA and 1h later exposed to the indicated concentrations of compounds for an additional 6 h, at which time extracts were prepared and luciferase activity measured. n=3 SD.\nFIG. 28. In cellula dose-response of (AG)10- and (UC)10-FF/HCV/Ren mRNAs to hippuristanol and pateamine. Firefly and renilla luciferase activity in response to the indicated compound concentrations (relative to DMSO controls) following mRNA transfections in 293 cells. n=3±SD."}, "[3]": {"tested_on": "NIH/3T3 cells", "test": "Sulforhodamine B (SRB) cytotoxicity assay", "type": "cell-based", "description": "In cellula activity of rocaglates. All compounds in the rocaglate collection were assessed for cytotoxic activity towards NIH/3T3 cells as well as the rocaglate-resistant line, eIF4A^em1JP, which harbors an F163L mutation in eIF4A1. This mutation was originally identified following selection for RocA-resistant yeast mutants and F163 was subsequently shown to be critical for stacking with ring C of RocA (2) (FIG. 4). Although eIF4A2 is also a target of rocaglates, eIF4A1 F163L is sufficient to confer resistance to rocaglate-induced translation inhibition and cytotoxicity, likely due to eIF4A1 being the more abundant isoform in NIH/3T3 cells (250-fold higher). […] Lastly, although effective at inhibiting cap-dependent translation in vitro, WGD-57-591 (no activity @ 40 nM) and WGD-57-590 (12% growth inhibition @ 40 nM) performed poorly in this assay.\nSulforhodamine B (SRB) assay. NIH/3T3 cells were seeded at a density of 1000 cells/well in a 96 well format and incubated in presence of each 40 nM compound. After 4 days of culture, cells were washed with PBS, fixed with 50% trichloroacetic (TCA) acid for 1 hour, and then stained with 0.5% sulforhodamine B in 1% acetic acid for 15 min. Plates were then washed 5 times with 1% acetic acid, dried, and the stained wells were resuspended with 10 mM Tris (pH 9) prior to measuring the absorbance at 510 nm using (Spectramax M5, Molecular Devices)\nas §1"}}, "data": [{"smiles": "COC(=O)[C@H]1[C@@H](O)[C@@]2(O)c3c(OC)cc(O[C@@H]4O[C@@H]([C@H](O)CO)CO[C@H]4OC)cc3O[C@@]2(c2ccc(OC)cc2)[C@@H]1c1ccccc1", "note": "[silvestrol]", "values": [{"measurement": "stimulation of eIF4A1:RNA binding (in words)", "setting": "[1]", "value": "less potent across the concentrations tested"}, {"measurement": "stimulation of eIF4A1:RNA binding (in words)", "setting": "[1]; listed as Silvestrol", "value": "relatively weak activity"}, {"measurement": "inhibition of (AG)10 versus (UC)10 reporter in cellula (in words)", "setting": "[2]", "value": "inhibited both reporters equally"}]}, {"smiles": "COC(=O)[C@@H]1[C@@H](c2ccccc2)[C@]2(c3ccc(OC)cc3)Oc3cc(OC)cc(OC)c3[C@@]23N=C(C)N[C@@]13O", "note": "[9b]", "values": [{"measurement": "rank among the top 15 cytotoxic rocaglates", "setting": "[3]; 40 nM, 4 days", "value": 10, "unit": "th"}, {"measurement": "inhibition of (AG)10 versus (UC)10 reporter in cellula (in words)", "setting": "[2]", "value": "slight preference for inhibiting the (AG)10-FF/HCV/Ren reporter mRNA"}]}, {"smiles": "CONC(=O)[C@H]1[C@@H](O)[C@@]2(O)c3c(OC)cc(OC)cc3O[C@@]2(c2ccc(OC)cc2)[C@@H]1c1ccccc1", "note": "[CR-1-31-B]", "values": [{"measurement": "stimulation of eIF4A1:RNA binding (in words)", "setting": "[1]", "value": "preferentially stimulated binding of eIF4A1 to RNA harboring polypurine bases"}, {"measurement": "IC50", "setting": "[3]; 4 day exposure, read-out: IC50, cytotoxicity towards NIH/3T3 cells", "value": "~8.5", "unit": "nM"}, {"measurement": "inhibition of (AG)10 versus (UC)10 reporter in cellula (in words)", "setting": "[2]", "value": "showed preference for inhibiting (AG)10-FF/HCV/Ren over (UC)10-FF/HCV/Ren mRNA"}]}, {"smiles": "COc1ccc([C@@]23Oc4cc(OC)cc(OC)c4[C@]2(O)[C@H](O)[C@H](C(=O)N(C)C)[C@H]3c2ccccc2)cc1", "note": "[RocA, rocaglamide A]", "values": [{"measurement": "stimulation of eIF4A1:RNA binding (in words)", "setting": "[1]", "value": "activity similar to CR-1-31-B"}]}]}
